The record followed here is ChEMBL document CHEMBL1201862, “PubChem BioAssay data set” (2004).

The target of test [1] is T1, Microphthalmia-associated transcription factor (Homo sapiens, UniProt O75030).
T1 sequence (O75030 whole entry): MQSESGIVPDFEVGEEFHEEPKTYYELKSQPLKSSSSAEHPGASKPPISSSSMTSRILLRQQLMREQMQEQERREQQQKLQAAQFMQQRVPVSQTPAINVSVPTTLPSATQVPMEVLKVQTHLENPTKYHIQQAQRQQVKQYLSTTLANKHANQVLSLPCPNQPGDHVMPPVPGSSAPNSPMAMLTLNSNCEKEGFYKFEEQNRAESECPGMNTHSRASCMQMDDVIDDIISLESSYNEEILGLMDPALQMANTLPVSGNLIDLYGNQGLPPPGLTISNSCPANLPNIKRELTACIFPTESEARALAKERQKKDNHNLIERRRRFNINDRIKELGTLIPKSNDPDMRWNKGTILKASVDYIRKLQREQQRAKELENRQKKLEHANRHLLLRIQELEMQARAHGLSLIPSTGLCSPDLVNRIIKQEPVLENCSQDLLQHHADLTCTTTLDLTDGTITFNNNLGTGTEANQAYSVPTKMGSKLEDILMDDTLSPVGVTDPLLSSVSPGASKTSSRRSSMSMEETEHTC
In words: reducers of TRPM1 reporter luminescence, concentration series – cell-based, SK-MEL-5, cherry-picked, set 3, MITF inhibitor project, dose response (AID 493073).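 Also: SK-MEL-5 melanoma cells with luciferase driven by the MITF target TRPM1 promoter.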 It counts as functional.

The nature of test [2]: microbe, parasite or virus in culture. Type of test: functional. The note with it: Mycobacterium tuberculosis.
For test [3], the target named is T2, Ubiquitin-conjugating enzyme E2 N (Homo sapiens, UniProt P61088).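 Also: Dose-response confirmation in a TR-FRET assay detecting UBC13-driven polyubiquitin chain formation, inhibition measured.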
T2 sequence (P61088 whole entry): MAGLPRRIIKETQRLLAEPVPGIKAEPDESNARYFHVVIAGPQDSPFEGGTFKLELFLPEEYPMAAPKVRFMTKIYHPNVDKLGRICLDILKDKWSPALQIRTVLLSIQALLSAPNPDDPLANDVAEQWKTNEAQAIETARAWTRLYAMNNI
Type of test: functional.

For test [4], the target named is T3, Orexin/Hypocretin receptor type 1 (Homo sapiens, UniProt O43613).
T3 sequence (O43613 whole entry): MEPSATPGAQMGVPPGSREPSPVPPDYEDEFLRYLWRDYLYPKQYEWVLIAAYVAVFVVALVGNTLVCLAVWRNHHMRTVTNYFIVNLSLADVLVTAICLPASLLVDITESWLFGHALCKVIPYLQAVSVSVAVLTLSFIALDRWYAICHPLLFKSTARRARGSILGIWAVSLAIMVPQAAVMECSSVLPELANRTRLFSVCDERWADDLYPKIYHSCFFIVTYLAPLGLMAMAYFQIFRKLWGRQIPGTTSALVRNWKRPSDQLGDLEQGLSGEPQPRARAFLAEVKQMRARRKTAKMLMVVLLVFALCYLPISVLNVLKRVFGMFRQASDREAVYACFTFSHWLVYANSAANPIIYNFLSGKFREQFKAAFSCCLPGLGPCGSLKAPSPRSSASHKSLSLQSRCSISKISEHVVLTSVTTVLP
As to the kind of experiment: Fluorescence-based cell-based high throughput dose response assay for antagonists of the orexin 1 receptor (OX1R; HCRTR1). [Related pubchem assays (depositor defined):AID434989, AID435008, AID463079, AID485270, AID492963, AID492964, AID492965, AID493232, AID504717, AID504718]. It counts as functional.

In test [5] the target is T4, Serine/threonine-protein phosphatase (Candida dubliniensis (strain CD36 / CBS 7987 / NCPF 3949 / NRRLY-17841) (Yeast), UniProt B9W6M3).
T4 sequence (B9W6M3 whole entry): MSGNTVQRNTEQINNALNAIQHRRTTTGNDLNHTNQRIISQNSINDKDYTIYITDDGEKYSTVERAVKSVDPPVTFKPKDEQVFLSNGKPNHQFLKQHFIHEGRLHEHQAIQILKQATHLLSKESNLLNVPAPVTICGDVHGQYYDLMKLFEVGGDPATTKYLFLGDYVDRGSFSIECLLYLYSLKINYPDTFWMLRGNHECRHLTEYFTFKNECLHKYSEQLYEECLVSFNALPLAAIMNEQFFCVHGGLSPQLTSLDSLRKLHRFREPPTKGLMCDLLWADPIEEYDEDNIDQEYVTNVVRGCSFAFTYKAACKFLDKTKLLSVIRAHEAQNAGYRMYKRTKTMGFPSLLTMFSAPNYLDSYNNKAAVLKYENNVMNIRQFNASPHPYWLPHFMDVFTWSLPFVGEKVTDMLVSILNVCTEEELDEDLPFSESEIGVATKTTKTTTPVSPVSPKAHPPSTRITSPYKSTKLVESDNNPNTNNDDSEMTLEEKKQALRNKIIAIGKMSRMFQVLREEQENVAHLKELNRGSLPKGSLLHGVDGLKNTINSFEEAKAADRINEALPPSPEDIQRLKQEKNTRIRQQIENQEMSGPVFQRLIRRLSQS
As to the kind of experiment: blockers of CaCl2-induced CDRE-lacZ signaling – S. cerevisiae, luminescence, secondary, dose response (AID 2388).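 Also: yeast reporter cells carrying a calcineurin-responsive lacZ construct stimulated with calcium chloride; luminescent beta-galactosidase reporter signal in whole cells rather than isolated phosphatase activity; potency for inhibition where a drop in reporter signal means calcineurin blockade.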 Type of test: functional, cell-based.

The subject of test [6] is HEK293. In words: EBV LMP1 TES2 canonical NF-kB signalling blockers – cell-based, HEK293, luciferase, cherry-pick, dose response (AID 588343). It counts as functional. To be noted: Homo sapiens.
Test [7] is described as follows: reduction of Shn3 3'UTR-driven luciferase in osteoblasts – cell-based, Clone20 osteoblasts, firefly luciferase, cherry-picked, dose response (AID 624132).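 Also: firefly luciferase luminescence from reporter carrying the Shn3 3'UTR in osteoblasts.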 Type of test: functional.
Test [8] is described as follows: non-specific 3'UTR reporter inhibition in Clone20-Shn3RL – cell-based, Renilla luciferase, cherry-picked, counter-screen for Shn3 inhibitor project, dose response (AID 624133). Type of test: functional.
Test [9] addresses ATP-dependent molecular chaperone HSP82 (Candida albicans (strain WO-1) (Yeast), UniProt C4YTQ8). As to the kind of experiment: steroid-induced GRE reporter decrease in yeast – S. cerevisiae, luminescence, Hsp90 inhibitor project, dose response (AID 2400).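 Also: beta-galactosidase luminescence from glucocorticoid response element reporter as proxy for Hsp90 function; inhibitor potency where signal loss means Hsp90 inhibition.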 It counts as functional, cell-based.
Test [10] concerns the target Genome polyprotein (dengue virus type 2, UniProt P29990). In words: flavivirus cap methylation enzyme inhibition – biochemical, confirmation dose response, primary screen (AID 588689). Type of test: functional.
Test [11] concerns the target Fatty acid synthase (Homo sapiens, UniProt P49327). As to the kind of experiment: inhibition of human FAS-TE enzyme activity – biochemical, kinetic fluorescence intensity, dose response (AID 624326).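 Also: rate of fluorescence rise from hydrolysis of a fluorogenic O-methyl fluorescein ester substrate.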 Type of test: functional.
The nature of test [12]: Reduced DLD-1 viability, concentration-response, CellTiter-Glo luminescence (AID 1117352). Type of test: functional.
Test [13] in a line: RKO cell viability reduction, dose response, CellTiter-Glo luminescence (AID 1117322). It counts as functional. (ATP-based viability assays read luminescence as a measure of living cells.)
Test [14] is described as follows: CellTiter-Glo luminescence survival assay, SW480 colon tumor line, concentration-response curve, half-maximal inhibitory concentration (AID 1117338). It counts as functional.

Calls of active or inactive are those of the source. Some results are limits rather than exact numbers.

As a reminder, the AC50 is the midpoint of the concentration-response curve, whichever way the signal moves. In general, IC50 refers to the concentration at which inhibition is half-maximal. Broadly, the EC50 is the concentration needed to bring the measured effect to its halfway point.

Sequence of ATP-dependent molecular chaperone HSP82 (C4YTQ8 whole entry): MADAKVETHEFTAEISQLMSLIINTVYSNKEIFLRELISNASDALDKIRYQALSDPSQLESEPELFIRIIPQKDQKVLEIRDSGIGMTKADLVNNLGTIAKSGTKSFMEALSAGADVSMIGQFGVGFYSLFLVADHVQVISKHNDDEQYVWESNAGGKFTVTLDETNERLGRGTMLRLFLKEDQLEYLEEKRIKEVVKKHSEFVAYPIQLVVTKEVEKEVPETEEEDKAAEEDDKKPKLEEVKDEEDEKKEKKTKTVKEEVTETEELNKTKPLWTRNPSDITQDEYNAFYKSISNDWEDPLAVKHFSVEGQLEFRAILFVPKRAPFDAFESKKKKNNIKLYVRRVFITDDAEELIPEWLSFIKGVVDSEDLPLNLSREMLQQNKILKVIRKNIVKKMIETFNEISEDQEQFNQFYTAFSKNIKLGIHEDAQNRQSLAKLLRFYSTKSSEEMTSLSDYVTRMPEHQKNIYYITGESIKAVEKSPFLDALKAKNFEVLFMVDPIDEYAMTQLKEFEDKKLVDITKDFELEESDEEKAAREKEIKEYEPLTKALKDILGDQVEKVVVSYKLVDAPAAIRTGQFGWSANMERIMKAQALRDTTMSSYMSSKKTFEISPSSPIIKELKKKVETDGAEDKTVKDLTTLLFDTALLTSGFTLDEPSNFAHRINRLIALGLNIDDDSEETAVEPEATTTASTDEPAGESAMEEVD
Sequence of Genome polyprotein (P29990 2492-3391 limits assumed): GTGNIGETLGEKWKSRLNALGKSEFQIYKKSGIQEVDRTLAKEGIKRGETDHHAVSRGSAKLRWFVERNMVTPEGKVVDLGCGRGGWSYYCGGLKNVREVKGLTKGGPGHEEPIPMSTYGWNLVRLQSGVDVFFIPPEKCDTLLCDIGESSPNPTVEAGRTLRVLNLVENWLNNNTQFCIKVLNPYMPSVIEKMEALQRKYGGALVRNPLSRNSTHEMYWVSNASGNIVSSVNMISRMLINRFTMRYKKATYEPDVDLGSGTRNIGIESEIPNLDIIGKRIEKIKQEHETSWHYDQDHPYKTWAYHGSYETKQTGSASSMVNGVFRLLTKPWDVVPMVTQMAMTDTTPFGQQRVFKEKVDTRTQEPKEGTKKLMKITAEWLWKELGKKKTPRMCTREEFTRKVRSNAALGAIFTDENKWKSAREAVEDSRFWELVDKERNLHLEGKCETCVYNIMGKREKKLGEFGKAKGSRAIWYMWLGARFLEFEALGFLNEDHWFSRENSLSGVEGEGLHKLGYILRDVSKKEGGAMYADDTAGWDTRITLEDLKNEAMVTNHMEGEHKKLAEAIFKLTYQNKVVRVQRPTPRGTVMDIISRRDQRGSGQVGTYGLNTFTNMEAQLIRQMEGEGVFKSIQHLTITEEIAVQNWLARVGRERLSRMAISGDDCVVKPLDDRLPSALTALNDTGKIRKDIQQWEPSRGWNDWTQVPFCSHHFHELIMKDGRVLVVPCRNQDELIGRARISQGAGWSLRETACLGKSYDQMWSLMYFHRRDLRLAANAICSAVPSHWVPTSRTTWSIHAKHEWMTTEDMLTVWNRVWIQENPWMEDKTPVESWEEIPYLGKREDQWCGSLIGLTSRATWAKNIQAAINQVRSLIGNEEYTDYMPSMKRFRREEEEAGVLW
Sequence of Fatty acid synthase (P49327 whole entry): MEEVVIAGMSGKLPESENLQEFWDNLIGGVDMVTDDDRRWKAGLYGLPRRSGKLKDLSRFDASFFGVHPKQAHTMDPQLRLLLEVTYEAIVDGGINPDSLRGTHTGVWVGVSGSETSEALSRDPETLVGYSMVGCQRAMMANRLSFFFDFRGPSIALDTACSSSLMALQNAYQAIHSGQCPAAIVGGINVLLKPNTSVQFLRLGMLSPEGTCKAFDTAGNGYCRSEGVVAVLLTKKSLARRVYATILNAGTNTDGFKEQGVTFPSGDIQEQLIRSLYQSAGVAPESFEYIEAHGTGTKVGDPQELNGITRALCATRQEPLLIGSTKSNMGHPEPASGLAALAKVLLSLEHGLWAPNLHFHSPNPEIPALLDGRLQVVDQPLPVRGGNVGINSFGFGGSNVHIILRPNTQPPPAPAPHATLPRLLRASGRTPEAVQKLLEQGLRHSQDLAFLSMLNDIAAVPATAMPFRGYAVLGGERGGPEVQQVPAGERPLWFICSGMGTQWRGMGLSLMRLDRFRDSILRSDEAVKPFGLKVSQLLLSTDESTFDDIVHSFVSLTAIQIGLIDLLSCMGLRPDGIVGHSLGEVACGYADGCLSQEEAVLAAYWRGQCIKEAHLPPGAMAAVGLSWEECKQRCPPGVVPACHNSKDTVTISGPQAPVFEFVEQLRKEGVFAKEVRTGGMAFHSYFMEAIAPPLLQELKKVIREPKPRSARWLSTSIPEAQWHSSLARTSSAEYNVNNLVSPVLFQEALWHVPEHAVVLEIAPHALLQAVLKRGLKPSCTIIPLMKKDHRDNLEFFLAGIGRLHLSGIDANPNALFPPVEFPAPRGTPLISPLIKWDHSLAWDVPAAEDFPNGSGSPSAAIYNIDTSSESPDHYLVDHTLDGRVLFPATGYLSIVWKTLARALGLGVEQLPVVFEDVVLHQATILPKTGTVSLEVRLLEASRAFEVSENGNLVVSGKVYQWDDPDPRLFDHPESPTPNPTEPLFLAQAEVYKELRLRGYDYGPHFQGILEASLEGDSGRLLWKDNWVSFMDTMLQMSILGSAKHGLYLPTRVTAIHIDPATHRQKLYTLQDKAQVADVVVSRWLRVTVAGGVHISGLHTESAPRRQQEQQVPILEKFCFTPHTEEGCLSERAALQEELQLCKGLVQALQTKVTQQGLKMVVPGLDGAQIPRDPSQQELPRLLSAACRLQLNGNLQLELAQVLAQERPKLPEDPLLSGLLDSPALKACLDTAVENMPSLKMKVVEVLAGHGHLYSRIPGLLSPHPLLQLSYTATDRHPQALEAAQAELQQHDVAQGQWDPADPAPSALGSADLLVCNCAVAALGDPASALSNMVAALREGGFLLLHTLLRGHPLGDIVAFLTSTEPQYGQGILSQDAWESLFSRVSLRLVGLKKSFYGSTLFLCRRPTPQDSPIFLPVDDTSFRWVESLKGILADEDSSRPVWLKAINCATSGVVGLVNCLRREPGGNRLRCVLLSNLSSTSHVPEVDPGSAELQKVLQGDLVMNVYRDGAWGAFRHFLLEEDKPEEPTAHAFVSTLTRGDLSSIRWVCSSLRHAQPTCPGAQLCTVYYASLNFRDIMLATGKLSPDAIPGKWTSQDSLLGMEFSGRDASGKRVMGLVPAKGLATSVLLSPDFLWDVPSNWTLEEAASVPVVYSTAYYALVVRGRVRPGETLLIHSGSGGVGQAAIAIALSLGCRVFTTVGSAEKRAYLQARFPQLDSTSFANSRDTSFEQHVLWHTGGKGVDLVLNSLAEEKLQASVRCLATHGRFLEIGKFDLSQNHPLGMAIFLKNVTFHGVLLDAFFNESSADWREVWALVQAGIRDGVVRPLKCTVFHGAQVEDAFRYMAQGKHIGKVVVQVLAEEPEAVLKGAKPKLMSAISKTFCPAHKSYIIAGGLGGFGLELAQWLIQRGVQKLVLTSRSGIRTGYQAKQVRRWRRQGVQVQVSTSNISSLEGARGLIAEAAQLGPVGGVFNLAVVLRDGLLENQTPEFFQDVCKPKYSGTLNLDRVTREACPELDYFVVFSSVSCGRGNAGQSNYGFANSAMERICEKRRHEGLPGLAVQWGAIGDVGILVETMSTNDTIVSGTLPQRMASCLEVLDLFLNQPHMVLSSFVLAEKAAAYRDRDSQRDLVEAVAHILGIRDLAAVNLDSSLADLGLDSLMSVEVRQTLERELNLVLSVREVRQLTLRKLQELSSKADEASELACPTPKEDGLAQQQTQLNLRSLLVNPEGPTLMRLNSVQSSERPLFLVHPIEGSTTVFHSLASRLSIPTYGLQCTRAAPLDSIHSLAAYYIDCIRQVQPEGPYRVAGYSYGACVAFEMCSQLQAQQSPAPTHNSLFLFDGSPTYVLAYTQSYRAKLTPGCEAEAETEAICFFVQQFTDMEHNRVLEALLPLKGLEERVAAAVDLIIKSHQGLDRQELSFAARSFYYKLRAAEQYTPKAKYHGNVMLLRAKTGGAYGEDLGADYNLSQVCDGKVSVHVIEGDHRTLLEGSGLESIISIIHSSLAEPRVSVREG

On to `CC1(C)Cc2ccccc2C2=NNC(=O)C2=N1`, for which, in test [1], the AC50 was 3.62 µM (active). Further, the CC50 in test [2] is 31.2 µM (active).

Regarding `Oc1ccc(NC(=S)N=Nc2c(O)[nH]c3ccccc23)cc1`, the IC50 in [3] was 2.17 µM (active); in test [4], 43.6 µM (inactive).

`CCCC(=O)NC(c1ccc(C(C)C)cc1)c1ccc2cccnc2c1O` (centres undefined): the EC50 was > 180 µM (inactive) in test [5] and > 160 µM (inactive) in [9]. Further, the AC50 in test [6] is 5.04 µM (active); in test [7] it was 0.47 µM (active); in test [8], 0.938 µM (active).

With `CCc1ccc(S(=O)(=O)Nc2cc(SCC(=O)O)c(O)c3ccccc23)cc1`, the IC50 in test [10] is 9.53 µM (active).

Take `Oc1c(Cl)cc(Cl)c(Cl)c1Cc1c(O)c(Cl)cc(Cl)c1Cl` [HEXACHLOROPHENE]: the IC50 in [11] is 5.68 µM (active); in test [12] it was 0.0157 µM (active); in test [13], 0.108 µM (active); in [14], 0.003 µM (active).
